Results: US20230248689A1, “PHARMACEUTICAL FORMULATIONS OF GRISEOFULVIN FOR LONG-TERM OCULAR DELIVERY” (Purdue Research Foundation, priority 2020, published 2023)

Key:
[1] = system: human retinal endothelial cells (HRECs); test: Anti-proliferative effect on HRECs (Alamar Blue); format: cell-based; settings: 100 μM GRF equivalent, 48 hours
Experimental: Human retinal endothelial cells (HREC) were plated in transparent 96 well plates at a density of 2500 cells per well in 100 μL of growth medium and incubated for 24 h at 37° C. The medium was replaced with the samples collected at different time points. After 48 hours incubation, 11.1 μL Alamar Blue reagent was added to each well. After 4 hours incubation, plates were centrifuged at 200 g for 5 minutes, and 50 μL supernatant was transferred to black 96 well plates. Fluorescence intensity of each well was read with excitation and emission wavelengths of 560 nm and 590 nm, respectively.

[2] = system: human retinal endothelial cells (HREC); test: Long-term proliferation assay on HRECs with release samples collected over time; format: cell-based
Experimental: The formulations of the present invention, i.e. microparticles (MPs) or nanoparticles (NPs) of the griseofulvin (GRF) were tested for in vitro cell study, in particular long-term proliferation assay. This study provides an estimation of in vivo effect of griseofulvin formulations. To compare the long-term antiproliferative effect on human retinal endothelial cells (HREC), time averaged proliferation inhibition index (PII) was calculated (Σ AUC/time) from the plot of % proliferation at each time vs. time. The higher the PII indicating the prolonged anti-proliferative effects on HREC.
The long-term anti-proliferation effect of GRF loaded NPs from example 3B was studied, wherein GRF-PLGA-NPs were dispersed in 0.5 mL of growth media at GRF concentration ranging from 600 μM to 1200 μM. At specific time points (1, 2, 3, 4, 5, 6, 7, 10, 15, 20, and 25 days), tubes were centrifuged at 5k rpm for 5 minutes and the supernatant was collected and stored at −80° C. Pellet was redispersed in 0.5 mL fresh media, and the incubation was continued. […]
Human retinal endothelial cells (HREC) were plated in transparent 96 well plates at a density of 2500 cells per well in 100 μL of growth medium and incubated for 24 h at 37° C. […] Fluorescence intensity of each well was read with excitation and emission wavelengths of 560 nm and 590 nm, respectively. […]

Compound: COC1=CC(=O)C[C@@H](C)[C@]12Oc1c(Cl)c(OC)cc(OC)c1C2=O [Free GRF, (2S,6′R)-7-chloro-2′,4,6-trimethoxy-6′-methyl-3H-spiro[benzofuran-2,1′-cyclohexan]-2′-ene-3,4′-dione]
- inhibited proliferation of HRECs [1]: 53.5%
- long-term anti-proliferative effect on HREC (in words) ([2]; release samples over the incubation period): effective only at the first time point
- time averaged proliferation inhibition index (PII) ([2]; Σ AUC/time from % proliferation vs. time plot, HREC): 13.6
